Experimental findings from ChEMBL document CHEMBL1201862, “PubChem BioAssay data set” (2004) are described below.

Activity calls are given as the source filed them. Cut-off read from the data, not from the text of the source, for most assays here: active = IC50 of 10 µM or less and inactive = more.

One may read the IC50 as the concentration that gives 50% inhibition. Usually CC50 stands for the concentration at which the toxic effect on the cells reaches its halfway point.

The target in the first assay is T1, Orexin receptor type 2 (Homo sapiens, UniProt O43614).
T1 sequence (O43614 whole entry): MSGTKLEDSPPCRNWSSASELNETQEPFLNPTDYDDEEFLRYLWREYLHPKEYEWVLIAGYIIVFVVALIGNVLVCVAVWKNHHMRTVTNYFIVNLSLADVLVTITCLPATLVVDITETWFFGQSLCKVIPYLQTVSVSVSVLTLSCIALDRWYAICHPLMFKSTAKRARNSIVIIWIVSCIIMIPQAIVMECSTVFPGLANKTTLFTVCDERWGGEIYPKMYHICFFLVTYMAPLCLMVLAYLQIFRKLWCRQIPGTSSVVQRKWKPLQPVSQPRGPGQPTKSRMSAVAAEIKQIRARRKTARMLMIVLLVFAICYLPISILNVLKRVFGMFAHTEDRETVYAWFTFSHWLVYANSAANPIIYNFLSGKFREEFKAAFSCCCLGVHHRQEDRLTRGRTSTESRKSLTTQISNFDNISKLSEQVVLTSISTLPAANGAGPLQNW
Description: Counterscreen assay for antagonists of the orexin 1 receptor (OX1R; HCRTR1): Homogeneous Time Resolved Fluorescence (HTRF)-based cell-based dose response assay for antagonists of the orexin 2 receptor (OX2R; HCRTR2), run by assay provider. It counts as functional.
Conditions: not given
On the technique in general: The purpose of a counterscreen is to sort out artefacts and off-target activity.
As for `C=CCn1c(SCc2ccc(C(=O)Nc3nccs3)cc2)nnc1-c1ccc(C)c(Cl)c1`, the IC50 is > 50 µM (inactive).

In the case of `c1ccc(CN2CCN(C3CCCSc4ccccc43)CC2)cc1` (centres undefined), the IC50 was > 50 µM (inactive).

For `CCOc1ccccc1C(=O)NCCNC(=O)c1ccccc1OCC`, the IC50 is 2.78 µM (active).

A further assay relates to CHO-K1. Briefly: Counterscreen for antagonists of the orexin 1 receptor (OX1R; HCRTR1): Homogeneous time resolved fluorescence (HTRF)-based cell-based dose response assay to identify antagonists of the parental CHO-K1 cell line. [Related pubchem assays (depositor defined):AID434989, AID435008, AID463079, AID485270, AID492963, AID492964, AID492965, AID493232, AID504699, AID504701]. It counts as functional. Particulars: Cricetulus griseus.
Regarding `C=CCn1c(SCc2ccc(C(=O)Nc3nccs3)cc2)nnc1-c1ccc(C)c(Cl)c1`, the IC50 is > 66.2 µM (inactive).

For the compound `c1ccc(CN2CCN(C3CCCSc4ccccc43)CC2)cc1` (centres undefined), the IC50 is > 66.2 µM (inactive).

As to `CCOc1ccccc1C(=O)NCCNC(=O)c1ccccc1OCC`, the IC50 was > 66.2 µM (inactive).

Tested on in another assay: not listed separately
Briefly: A Cell Based Secondary Assay To Explore Cytotoxicity of Compounds that Sensitize Mycobacterium Tuberculosis to Beta-Lactam Antibiotics. It counts as functional.
Conditions: not given
In the case of `C=CCn1c(SCc2ccc(C(=O)Nc3nccs3)cc2)nnc1-c1ccc(C)c(Cl)c1`, the CC50 is 33 µM (active).

Another assay deals with T1, Orexin receptor type 2. Briefly: Counterscreen assay for antagonists of the orexin 1 receptor (OX1R; HCRTR1): Fluorescence-based cell-based dose response assay for antagonists of the orexin 2 receptor (OX2R; HCRTR2), run by assay provider. Format: functional.
Conditions: not given
For `C=CCn1c(SCc2ccc(C(=O)Nc3nccs3)cc2)nnc1-c1ccc(C)c(Cl)c1`, the IC50 was 18 µM (inactive).

Turning to `c1ccc(CN2CCN(C3CCCSc4ccccc43)CC2)cc1` (centres undefined), the IC50 was > 88.8 µM (inactive).

Turning to `CCOc1ccccc1C(=O)NCCNC(=O)c1ccccc1OCC`, the IC50 was > 88.8 µM (inactive).

The next assay has as its target T2, Orexin/Hypocretin receptor type 1 (Homo sapiens, UniProt O43613).
T2 sequence (O43613 whole entry): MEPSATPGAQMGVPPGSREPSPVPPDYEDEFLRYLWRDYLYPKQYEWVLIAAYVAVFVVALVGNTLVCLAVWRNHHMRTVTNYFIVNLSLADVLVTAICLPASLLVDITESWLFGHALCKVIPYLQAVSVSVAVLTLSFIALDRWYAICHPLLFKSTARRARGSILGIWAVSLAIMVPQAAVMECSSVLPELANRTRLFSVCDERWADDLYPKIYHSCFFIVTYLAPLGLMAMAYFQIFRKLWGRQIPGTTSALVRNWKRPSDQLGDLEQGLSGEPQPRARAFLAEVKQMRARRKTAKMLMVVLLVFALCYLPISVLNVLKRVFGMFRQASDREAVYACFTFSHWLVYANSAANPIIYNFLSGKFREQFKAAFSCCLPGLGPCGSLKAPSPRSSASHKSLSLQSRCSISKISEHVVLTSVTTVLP
Briefly: Fluorescence-based cell-based high throughput dose response assay for antagonists of the orexin 1 receptor (OX1R; HCRTR1). [Related pubchem assays (depositor defined):AID434989, AID435008, AID463079, AID485270, AID492963, AID492964, AID492965, AID493232, AID504717, AID504718].
Conditions: not given
It counts as functional.
For the compound `C=CCn1c(SCc2ccc(C(=O)Nc3nccs3)cc2)nnc1-c1ccc(C)c(Cl)c1`, the IC50 was 4.95 µM (active).

As to `c1ccc(CN2CCN(C3CCCSc4ccccc43)CC2)cc1` (centres undefined), the IC50 was 23.9 µM (inactive).

As to `CCOc1ccccc1C(=O)NCCNC(=O)c1ccccc1OCC`, the IC50 is 3.27 µM (active).

For another assay, the target named is T2, Orexin/Hypocretin receptor type 1. Briefly: Homogeneous Time Resolved Fluorescence (HTRF)-based cell-based high throughput dose response assay for antagonists of the orexin 1 receptor (OX1R; HCRTR1). [Related pubchem assays (depositor defined):AID434989, AID435008, AID463079, AID485270, AID492963, AID492964, AID492965, AID493232, AID504717, AID504718]. It counts as functional.
Conditions: not given
A general note: TR-FRET usually uses a lanthanide donor and a delayed reading to cut background.
Regarding `C=CCn1c(SCc2ccc(C(=O)Nc3nccs3)cc2)nnc1-c1ccc(C)c(Cl)c1`, the IC50 is 0.919 µM (active).

As to `c1ccc(CN2CCN(C3CCCSc4ccccc43)CC2)cc1` (centres undefined), the IC50 was 1.59 µM (active).

As to `CCOc1ccccc1C(=O)NCCNC(=O)c1ccccc1OCC`, the IC50 was 4.15 µM (active).

Tested on in another assay: not listed separately
Briefly: Counterscreen for antagonists of the orexin 1 receptor (OX1R; HCRTR1): Fluorescence-based cell-based high throughput dose response assay to identify antagonists of the parental CHO cell line. [Related pubchem assays (depositor defined):AID434989, AID435008, AID463079, AID485270, AID492963, AID492964, AID492965, AID493232, AID504699, AID504701]. Format: functional.
Conditions: not given
In the case of `C=CCn1c(SCc2ccc(C(=O)Nc3nccs3)cc2)nnc1-c1ccc(C)c(Cl)c1`, the IC50 was 18.3 µM (inactive).

`c1ccc(CN2CCN(C3CCCSc4ccccc43)CC2)cc1` (centres undefined): the IC50 was > 49.8 µM (inactive).

Regarding `CCOc1ccccc1C(=O)NCCNC(=O)c1ccccc1OCC`, the IC50 was > 49.8 µM (inactive).
